# Measured values as given in patent US20030022926A1, “Method for treating neuropathic pain and pharmaceutical preparation therefor” (priority 2001, published 2003).
# Like-named read-outs stand apart in the source and are kept apart here.
# Key:
# [1] = tested on: thermal hyperalgesia in rats with partial ligation of sciatic nerve; conditions: ligated side
# Text: (§1) After Institutional Animal Care Committee approval, adult male Wistar rats (Hanovre, weight 150 -180 g) underwent partial sciatic nerve ligation of the right sciatic nerve as described by Seltzer et al (Seltzer 1990). Briefly, under halothane anesthesia, the right sciatic nerve was exposed at high-thigh level and liberated from surrounding tissues. One third to one half of the nerve was then tightly ligated with silicon-treated silk suture (Prolene 7-0) before those muscle and skin layers were closed. The animals were allowed to recover for four to six weeks, lag of time sufficient to develop neuropathic pain features.
# (§2) Only the animals which had developed satisfactory Mechanical Allodynia and Thermal Hyperalgesia were used to assess the efficacy of peripheral nerve blockade.
# The rats were anesthetized with 4% halothane inhaled concentration in 100% oxygen by face mask. An unilateral percutaneous sciatic nerve block was then performed on the right ligated side. A 25-gauge needle was introduced between the greater trochanter and the ischial tuberosity, both landmarks previously localized by palpation, according to the technique reported by Thalhammer (Thalhammer JG, et al Neurologic evaluation of the rat during sciatic nerve block with lidocaine. Anesthesiology. 1995 Apr;82(4):1013-25). […]
# Values are expressed as mean±SD.
# neuropathic pain = tested on: neuropathic pain
# Text: The patient was then referred to the Pain Clinic to benefit from neuraxial analgesia (either epidural or intrathecal catheter placement). However, long-term spinal catheter is not devoid of side effects, both related to the technique, especially the risk of infection and to the drugs used.
# [2] = Protocol: (§3) The rats were anesthetized with 4% halothane inhaled concentration in 100% oxygen by face mask. An unilateral percutaneous sciatic nerve block was then performed on the right ligated side. A 25-gauge needle was introduced between the greater trochanter and the ischial tuberosity, both landmarks previously localized by palpation, according to the technique reported by Thalhammer (Thalhammer JG, et al Neurologic evaluation of the rat during sciatic nerve block with lidocaine. Anesthesiology. 1995 Apr;82(4):1013-25). Different mixtures of saline and alpha-2-adrenergic agonist were then injected in a total volume of 0.3 ml.
# [3] = tested on: mechanical allodynia in rats with partial ligation of sciatic nerve
# Text: A validated animal model of neuropathic pain was used that results from a partial ligation of one sciatic nerve in rat (Seltzer 1990). Nerve ligation and subsequent edema represents an experimental model for mechanisms operative in both nociceptive nerve pain and pain due to partial deafferentation (Asbury A, Fields H. Pain due to peripheral nerve damage: an hypothesis. Neurology 1984; 34: 1587-1590). This model thereby closely mimics the clinical situation found in several cancerous patients.
# as §1
# Mechanical allodynia was assessed by application of calibrated Von Frey filaments (Stoelting, Wood Dale, Ill.), ranging from 1.2 g to 28.8 g.
# The animals were placed on a plastic mesh floor into individual boxes. After accommodation to the environment, the Von Frey filaments were applied vertically to the plantar surface of the ligated hind paw and gently bent 3-4 times over approximately 2 sec. if no response was elicited, a larger filament was applied in the same manner. The filaments were applied in increasing order until a brisk withdrawal or paw flinching occurred, that was considered as a positive response. The filament applications were repeated three times, with five to ten minutes interval between testing. The withdrawal threshold was determined as the mean of the three values.
# as §2, §3
# A single sciatic block (SB) injection of the following drugs was realized: Saline (n=6), Saline and intramuscular (IM) clonidine 30 μg (n=11), Clonidine 15 μg (n=8), Clonidine 3 μg (n=9). The drug used in the study for peripheral nerve block was: clonidine marketed for clinical use (Catapressan®, Boehringer Ingelheim). The drug was diluted in isotonic saline.
# The animals were tested as previously described for both Mechanical Allodynia and Thermal Hyperalgesia at day0 (5 hours after sciatic nerve injection), day 1, day 3, day 7, day 10, day 14 and day 21 post drug injection.
# For Mechanical Allodynia, Paw withdrawal threshold (PWT) values were converted to percent of maximum possible effect (% MPE), according to the formula:
# % MPE=(post-drug infiltration threshold−baseline post-ligation threshold)/(pre-ligation threshold−baseline post-ligation threshold)×100
# Values are expressed as mean±SD. The percent maximum possible effect data were used to calculate the respective ED50 values of clonidine and clonidine combinations using linear regression.
# [4] = tested on: phosphorylated cAMP response element binding protein (pCREB)
# Protocol: The L4-5 spinal cord segments and the ipsilateral and contralateral sciatic nerve segments at both proximal and mid-thigh levels were removed and postfixed in the same fixative for 3-6 hours. Then all tissues were transferred to 30% sucrose in 0.1 M PB at 40° C. for cryoprotection. The spinal cord segments were cut on a cryostat at a 40 μm thickness. The free-floating sections were collected in PBS. After being pre-treated with 0.3% H 202 and 10% normal goat serum (NGS, Vector Laboratories, Burlingame, Calif.), sections were incubated for 36 hours at 40° C. in a rabbit polyclonal anti-phospho-CREB antibody (1:1,000, New England Biolabs, Beverly, Mass., U.S.A.) diluted in phosphate buffered saline containing 0.3% Triton-×100 (PBS+T) and 3% NGS. Subsequently, the sections were incubated in biotinylated goat anti-rabbit IgG (Vector) and further processed using Elite Vectastain ABC kit (Vector) according to the instructions of the manufacturer. Between each incubation, sections were washed in PBS+T (15 min twice). Finally, the immunoprecipitates were developed by 3,-3′ diaminobenzedine (DAB) and the chromogen was enhanced by the glucose oxidase-nickel-3,-3′ DAB method.
# Images of both ipsilateral and contralateral dorsal horns of nerve injured rats or from the dorsal horn of normal rats were captured at ×250 magnification using a CCD camera. In a given area (235 μm×235 μm), which covered the entire LI to LII in depth and was located in the middle one third of the mediolateral extent of the dorsal horn, the number of pixels occupied by pCREB-IR cells on each side was measured automatically using image analysis software (SigmaScan, Jandel Scientific Inc., San Rafael, Calif., U.S.A.). Values are expressed as mean+SEM. Groups were compared using two-way ANOVA followed by Dunnett's or Fishers LSD test. To compare the mean number of the pixels occupied by pCREB-IR cells between two-side dorsal horn, a paired t-test or one-way ANOVA with Student-Newman-Keuls multiple comparison method was used. P<0.05 was considered significant.
# [5] = ipsilateral and contralateral, compared to saline controls (p<0.001)
# [6] = one week after single peripheral nerve injection at the injury site, 30 mg as printed
smiles,measurement,setting,value
"Clc1cccc(Cl)c1NC1=NCCN1 [clonidine, N-(2,6-dichlorophenyl)-4,5-dihydro-1H-imidazol-2-amine]",effect of peripheral nerve block on thermal hyperalgesia (in words),[1],alleviated the thermal hyperalgesia in a dose-related manner
same,duration of strong alleviation of neuropathic pain after a single femoral block injection,neuropathic pain; clonidine alone,more than ten
same,onset of the antihyperalgesic effect,"neuropathic pain; clonidine alone, femoral block",four to five
same,efficacy of clonidine alone versus initial mixture,"neuropathic pain; femoral block, local anesthetic and steroid withdrawn",as effective as previous combination
same,tolerance on repetitive blocks,neuropathic pain; repetitive peripheral nerve blocks in the cancerous patient,without apparition of tolerance
same,sedation,[2]; after clonidine injection in rats,mild transitory sedation
same,motor blockade or motor deficit,[2]; peripheral sciatic nerve block in rats,did not result into motor blockade or subsequent motor deficit
same,PWT values (Paw Withdrawal threshold),"[3]; intramuscular (IM) clonidine 30 μg, D0 (5 h)",2.6 ± 1.8 g
same,PWT values (Paw Withdrawal threshold),"[3]; intramuscular (IM) clonidine 30 μg, D1",7.9 ± 4.2 g
same,PWT values (Paw Withdrawal threshold),"[3]; intramuscular (IM) clonidine 30 μg, D3",4.3 ± 2.8 g
same,PWT values (Paw Withdrawal threshold),"[3]; intramuscular (IM) clonidine 30 μg, D7",5.2 ± 2.8 g
same,PWT values (Paw Withdrawal threshold),"[3]; intramuscular (IM) clonidine 30 μg, D10",3.6 ± 2.3 g
same,PWT values (Paw Withdrawal threshold),"[3]; intramuscular (IM) clonidine 30 μg, D14",2.0 ± 3.3 g
same,PWT values (Paw Withdrawal threshold),"[3]; intramuscular (IM) clonidine 30 μg, D21",3.6 ± 1.4 g
same,"peak effect on mechanical allodynia, day post injection","[3]; peripheral sciatic block 3 to 30 μg, four to six weeks after nerve injury",7 days
same,Maximal effect in alleviating Mechanical Allodynia,"[3]; sciatic block 3 μg, at D1",34.2±5.1 % MPE
same,Maximal effect in alleviating Mechanical Allodynia,"[3]; sciatic block 15 μg, at D3",40.5±6.4 % MPE
same,Maximal effect in alleviating Mechanical Allodynia,"[3]; sciatic block 30 μg, at D7",76.6±9.2 % MPE
same,PWT values (Paw Withdrawal threshold),"[3]; sciatic block (SB) 3 μg, D0 (5 h)",4.7 ± 4 g
same,PWT values (Paw Withdrawal threshold),"[3]; sciatic block (SB) 3 μg, D1",12.0 ± 4 g
same,PWT values (Paw Withdrawal threshold),"[3]; sciatic block (SB) 3 μg, D3",10.3 ± 5 g
same,PWT values (Paw Withdrawal threshold),"[3]; sciatic block (SB) 3 μg, D7",8.2 ± 4 g
same,PWT values (Paw Withdrawal threshold),"[3]; sciatic block (SB) 3 μg, D10",7.0 ± 3 g
same,PWT values (Paw Withdrawal threshold),"[3]; sciatic block (SB) 3 μg, D14",5.0 ± 2 g
same,PWT values (Paw Withdrawal threshold),"[3]; sciatic block (SB) 3 μg, D21",4.3 ± 1 g
same,PWT values (Paw Withdrawal threshold),"[3]; sciatic block (SB) 15 μg, D0 (5 h)",4.8 ± 2 g
same,PWT values (Paw Withdrawal threshold),"[3]; sciatic block (SB) 15 μg, D1",12.6 ± 6 g
same,PWT values (Paw Withdrawal threshold),"[3]; sciatic block (SB) 15 μg, D3",12.9 ± 5 g
same,PWT values (Paw Withdrawal threshold),"[3]; sciatic block (SB) 15 μg, D7",8.8 ± 3 g
same,PWT values (Paw Withdrawal threshold),"[3]; sciatic block (SB) 15 μg, D10",9.7 ± 4 g
same,PWT values (Paw Withdrawal threshold),"[3]; sciatic block (SB) 15 μg, D14",6.4 ± 3 g
same,PWT values (Paw Withdrawal threshold),"[3]; sciatic block (SB) 15 μg, D21",3.7 ± 1 g
same,PWT values (Paw Withdrawal threshold),"[3]; sciatic block (SB) 30 μg, D0 (5 h)",9.3 ± 6 g
same,PWT values (Paw Withdrawal threshold),"[3]; sciatic block (SB) 30 μg, D1",14.7 ± 10 g
same,PWT values (Paw Withdrawal threshold),"[3]; sciatic block (SB) 30 μg, D3",23.7 ± 11 g
same,PWT values (Paw Withdrawal threshold),"[3]; sciatic block (SB) 30 μg, D7",23.0 ± 7 g
same,PWT values (Paw Withdrawal threshold),"[3]; sciatic block (SB) 30 μg, D10",11.9 ± 3 g
same,PWT values (Paw Withdrawal threshold),"[3]; sciatic block (SB) 30 μg, D14",11.4 ± 4 g
same,PWT values (Paw Withdrawal threshold),"[3]; sciatic block (SB) 30 μg, D21",7.8 ± 3 g
same,effect of single peripheral sciatic block on mechanical allodynia (in words),"[3]; single sciatic block, neuropathic rats",significantly alleviated mechanical allodynia
same,maximal antiallodynic effect,"[3]; systemic injection (IM) 30 μg, at day 0 (5 hours post-sciatic blockade)",20.7±5.7 % MPE
same,mean number of pixels in a fixed area occupied by pCREB-IR cells in the dorsal horn,[4]; [5],significantly reduced
same,mean optical density in a fixed area occupied by pCREB-IR cells in the dorsal horn,[4]; [5],significantly reduced
same,increase in pCREB-IR cells in the ipsilateral dorsal horn,[4]; [6],dramatically suppressed
same,number of pCREB-IR cells in the contralateral dorsal horn,[4]; [6],markedly reduced
